In patent publication US20240226117A1, “TREATMENT OF CONGENITAL ADRENAL HYPOPLASIA” (ReveraGen BioPharma, Inc., priority 2021, published 2024):

Tests used:
[1] = VBP15-002 Phase IIa multiple ascending dose trial: pharmacokinetics and safety; format: in vivo, human; conditions: DMD patients
Protocol: Vamorolone clinical studies have been conducted in adult male volunteers and boys with DMD, a disorder in which skeletal muscle is in a chronic inflammatory state. Two consecutive open-label dose-ranging studies in 48 DMD patients aged 4 to <7 years (corticosteroid-naïve) were conducted (Phase IIa, VBP15-002; Phase IIa, VBP15-003). Doses were tested over a 24-fold dose range (0.25, 0.75, 2.0, and 6.0 mg/kg/day), with 12 participants per group. The first multiple ascending dose (MAD) cohort trial-tested pharmacokinetics (PK) and safety for 2 weeks of drug dosing followed by a 2-week washout (VBP15-002). […] All DMD participants completed the MAD study and then continued on the same dose for a 24-week dose-finding (efficacy and safety) extension study (VBP15-003).
Three consecutive clinical trials of vamorolone treatment of DMD were conducted by CINRG (VBP15-002 [NCT02760264]: VBP15-003 [NCT02760277]: VBP15-LTE [NCT03038399]). A total of 48 participants (ages 4 to <7 years) were initially enrolled into VBP15-002, with trial participants completing month 12 of the 24-month VBP15-LTE study.
VBP15-002 (Phase IIa: two weeks on the drug, two weeks off drug) enrolled 48 corticosteroid-naïve participants with DMD, and all 48 participants completed the study and enrolled into VBP15-003 (Phase IIa extension: 24-week treatment). […]

ambulant boys with DMD [2] = assay: VISION-DMD Phase 2b (VBP15-004) motor efficacy, 24-week double-blind period; format: in vivo, human
glucocorticoid receptor = target: T1, glucocorticoid receptor (Homo sapiens, UniProt P04150); conditions: background statement; cited from earlier work
T1 sequence (P04150 1-777): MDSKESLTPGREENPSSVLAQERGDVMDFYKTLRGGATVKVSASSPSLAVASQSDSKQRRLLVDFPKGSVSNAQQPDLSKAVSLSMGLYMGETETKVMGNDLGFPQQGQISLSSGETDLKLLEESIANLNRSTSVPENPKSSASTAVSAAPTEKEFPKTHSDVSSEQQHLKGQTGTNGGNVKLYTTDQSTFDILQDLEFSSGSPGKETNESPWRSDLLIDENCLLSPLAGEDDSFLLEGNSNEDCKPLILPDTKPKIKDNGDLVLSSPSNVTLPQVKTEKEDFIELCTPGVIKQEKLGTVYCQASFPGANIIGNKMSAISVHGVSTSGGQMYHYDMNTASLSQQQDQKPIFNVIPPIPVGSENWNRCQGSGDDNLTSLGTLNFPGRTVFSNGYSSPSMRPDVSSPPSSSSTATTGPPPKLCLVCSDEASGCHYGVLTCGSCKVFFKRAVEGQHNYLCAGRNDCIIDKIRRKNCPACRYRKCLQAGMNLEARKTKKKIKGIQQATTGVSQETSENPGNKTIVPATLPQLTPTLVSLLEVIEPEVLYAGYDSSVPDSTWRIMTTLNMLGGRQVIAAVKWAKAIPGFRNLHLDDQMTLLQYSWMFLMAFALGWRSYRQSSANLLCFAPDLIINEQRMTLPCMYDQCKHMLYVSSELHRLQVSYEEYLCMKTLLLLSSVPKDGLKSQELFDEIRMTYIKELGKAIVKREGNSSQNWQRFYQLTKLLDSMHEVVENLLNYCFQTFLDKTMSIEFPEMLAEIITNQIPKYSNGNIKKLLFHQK

ambulant boys with DMD [3] = assay: VBP15-004 growth (height Z score); format: in vivo, human
ambulant boys with DMD [4] = conditions: in vivo

C[C@@H]1C[C@H]2[C@@H]3CCC4=CC(=O)C=C[C@]4(C)C3=CC[C@]2(C)[C@@]1(O)C(=O)CO [Vamorolone, 17α,21-dihydroxy-16α-methylpregna-1,4,9(11)-triene-3,20-dione]
dose-limiting toxicities ([1]; 0.25-6.0 mg/kg/day, 2 weeks of dosing): no dose-limiting toxicities
drug accumulation ([1]; day 1 vs day 14): no drug accumulation
TTSTAND after 24 weeks (ambulant boys with DMD [2]; vamorolone 6 mg/kg/day group, from 6.0 seconds at baseline): 4.6 s
TTSTAND velocity, 6MWT, TTRW endpoints compared with prednisone (ambulant boys with DMD [2]; vamorolone 6 mg/kg/day versus prednisone 0.75 mg/kg/day, 24 weeks): no statistically significant differences
TTSTAND velocity, treatment difference versus placebo in change from baseline (ambulant boys with DMD [2]; vamorolone 6 mg/kg/day, 24 weeks, p=0.002): 0.06 rises/second
binding to the glucocorticoid receptor (glucocorticoid receptor): potently binds
change in height Z scores from baseline to Week 24 (ambulant boys with DMD [3]; vamorolone 2.0 mg/kg/day): overall stable height change Z scores
change in height Z scores from baseline to Week 24 (ambulant boys with DMD [3]; vamorolone 6.0 mg/kg/day, p=0.02 versus prednisone): increased growth rate
clinically relevant psychiatric events, subjects (ambulant boys with DMD [4]): no vamorolone-treated subjects
moderate/severe behavior problems, subjects (ambulant boys with DMD [4]; male, human, 24 weeks): 1.7%
